Activity calls are given as the source filed them. The calls are words filed in the database; no cut-off is given here.
Experiments:
AD293 [1] = assay: Cytotoxicity against human AD293 cells assessed as reduction in cell viability after 24 hrs by methylene blue dye based spectrophotometric method; conditions: ad293, 24 h
Toll-like receptor 4 [2] = biological target: T1, Toll-like receptor 4 (Homo sapiens, UniProt O00206); assay: Antagonist activity at TLR4 (unknown origin) expressed in human AD293 cells assessed as inhibition of LPS/ATP-stimulated TLR4/NF-kB signaling pathway after 16 hrs by luciferase reporter gene assay; format: cell-based
T1 sequence (O00206 whole entry): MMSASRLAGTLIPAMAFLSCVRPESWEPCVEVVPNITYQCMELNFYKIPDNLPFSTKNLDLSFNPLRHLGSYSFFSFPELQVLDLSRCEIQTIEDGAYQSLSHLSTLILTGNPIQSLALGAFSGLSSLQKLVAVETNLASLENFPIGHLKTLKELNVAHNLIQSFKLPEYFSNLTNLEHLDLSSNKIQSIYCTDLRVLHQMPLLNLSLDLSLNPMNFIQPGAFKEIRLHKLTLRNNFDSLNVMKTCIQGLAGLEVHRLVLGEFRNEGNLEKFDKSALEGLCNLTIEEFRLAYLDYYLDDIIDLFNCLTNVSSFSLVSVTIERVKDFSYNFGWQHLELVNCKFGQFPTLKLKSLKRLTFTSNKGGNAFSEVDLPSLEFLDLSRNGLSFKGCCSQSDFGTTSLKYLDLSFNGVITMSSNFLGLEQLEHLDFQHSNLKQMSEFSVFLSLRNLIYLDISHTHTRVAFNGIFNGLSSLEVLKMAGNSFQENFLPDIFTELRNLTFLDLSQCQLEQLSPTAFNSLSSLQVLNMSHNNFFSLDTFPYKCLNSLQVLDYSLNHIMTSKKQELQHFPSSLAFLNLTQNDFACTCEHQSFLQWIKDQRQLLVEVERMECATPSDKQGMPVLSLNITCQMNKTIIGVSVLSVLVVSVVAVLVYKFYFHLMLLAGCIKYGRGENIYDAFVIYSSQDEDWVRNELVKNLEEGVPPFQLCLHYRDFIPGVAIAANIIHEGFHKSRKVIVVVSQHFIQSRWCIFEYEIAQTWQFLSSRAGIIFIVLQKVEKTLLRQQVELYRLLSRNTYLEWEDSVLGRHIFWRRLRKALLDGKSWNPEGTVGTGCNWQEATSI

Homo sapiens = species on record: Homo sapiens; assay: Inhibition of TNFalpha-stimulated NF-kB signaling pathway (unknown origin) expressed in human AD293 cells after 4 hrs by luciferase reporter gene assay; format: cell-based
AD293 [3] = assay: Cytotoxicity against human AD293 cells assessed as reduction in cell viability at 10 uM after 24 hrs by methylene blue dye based spectrophotometric method; conditions: ad293, 24 h
Toll-like receptor 4 [4] = biological target: T1, Toll-like receptor 4; assay: Antagonist activity at TLR4 (unknown origin) expressed in human AD293 cells assessed as inhibition of LPS/ATP-stimulated TLR4/NF-kB signaling pathway at 10 uM after 16 hrs by luciferase reporter gene assay; format: cell-based

| Structure (SMILES) | CC10 (AD293 [1]) [µM] | EC50 (Toll-like receptor 4 [2]) [µM] | EC10 (Homo sapiens) [µM] | Activity (AD293 [3]) | inhibition (Toll-like receptor 4 [4]) | EC10 (AD293 [1]) [µM] |
| --- | --- | --- | --- | --- | --- | --- |
| C[C@@H](OC(=O)c1cccnc1)[C@]1(O)CC[C@@]2(O)[C@]1(C)[C@H](OC(=O)/C=C/c1ccccc1)C[C@@H]1[C@@]3(C)CC[C@H](OC(=O)c4ccccc4)CC3=CC[C@]12O | > 10 | 11.1 | > 10 |  |  |  |
| CC(=O)[C@]1(OC(=O)c2ccc([N+](=O)[O-])cc2)CC[C@@]2(O)[C@]1(C)[C@H](OC(=O)c1ccc(O)cc1)C[C@@H]1[C@@]3(C)CC[C@H](OC(=O)c4ccc([N+](=O)[O-])cc4)CC3=CC[C@]12O |  |  |  | Toxic | inactive |  |
| COc1cc(/C=C/C(=O)O[C@H]2CC[C@@]3(C)C(=CC[C@]4(O)[C@@H]3C[C@@H](OC(=O)c3ccc(O)cc3)[C@@]3(C)[C@]4(O)CC[C@@]3(OC(=O)/C=C/c3cc(OC)c(OC)c(OC)c3)C(C)=O)C2)cc(OC)c1OC |  |  |  | Toxic | inactive |  |
| CC(=O)[C@]1(O)CC[C@]23OC(C)(C)O[C@]24CC=C2C[C@@H](O)CC[C@]2(C)[C@H]4C[C@@H](OC(=O)c2ccc(O)cc2)[C@@]31C |  |  |  | Toxic | inactive |  |
| CC(=O)[C@]1(OS(C)(=O)=O)CC[C@@]2(O)[C@]1(C)[C@H](OC(=O)c1ccc(O)cc1)C[C@@H]1[C@@]3(C)CC[C@H](OS(C)(=O)=O)CC3=CC[C@]12O |  |  |  | Toxic | inactive |  |
| C[C@H]1O[C@@H]2C[C@@H]3[C@@]4(C)CC[C@H](OC(=O)/C=C/c5ccccc5)CC4=CC[C@@]3(O)[C@@]3(O)CC[C@]1(OC(=O)/C=C/c1ccccc1)[C@@]23C |  |  |  | Toxic | inactive |  |
| CC(=O)[C@]1(O)CC[C@@]2(O)[C@]1(C)[C@H](OC(=O)/C=C/c1ccccc1)C[C@@H]1[C@@]3(C)CC[C@H](OC(=O)/C=C/c4ccc([N+](=O)[O-])cc4)CC3=CC[C@]12O |  |  |  | Toxic | inactive |  |
| C[C@@H](OC(=O)c1cccnc1)[C@]1(O)CC[C@@]2(O)[C@]1(C)[C@H](OC(=O)/C=C/c1ccccc1)C[C@@H]1[C@@]3(C)CC[C@H](OC(=O)/C=C/c4ccc([N+](=O)[O-])cc4)CC3=CC[C@]12O | > 10 | 14 | > 10 |  |  |  |
| C[C@H]1O[C@@H]2C[C@@H]3[C@@]4(C)CC[C@H](O)CC4=CC[C@@]3(O)[C@@]3(O)CC[C@]1(OC(=O)/C=C/c1ccccc1)[C@@]23C |  |  |  | Toxic | inactive |  |
| CC(=O)[C@]1(O)CC[C@@]2(O)[C@]1(C)[C@H](OC(=O)c1ccc(O)cc1)C[C@@H]1[C@@]3(C)CCC(=O)CC3=CC[C@]12O |  |  |  | Toxic | inactive |  |
| COc1cc(/C=C/C(=O)O[C@H]2CC[C@@]3(C)C(=CC[C@]4(O)[C@@H]3C[C@H]3O[C@H](C)[C@]5(OC(=O)/C=C/c6ccccc6)CC[C@@]4(O)[C@]35C)C2)cc(OC)c1OC |  |  |  | Toxic | inactive |  |
| C[C@@H](OC(=O)c1cccnc1)[C@]1(O)CC[C@@]2(O)[C@]1(C)[C@H](OC(=O)/C=C/c1ccccc1)C[C@@H]1[C@@]3(C)C=CC(=O)C=C3C=C[C@]12O | > 10 | 6.35 | > 10 |  |  |  |
| CC(=O)[C@]1(O)CC[C@@]2(O)[C@]1(C)[C@H](OC(=O)c1ccc(O)cc1)C[C@@H]1[C@@]3(C)CC[C@H](O)CC3=CC[C@]12O |  |  |  | Toxic | inactive |  |
| COc1ccc(/C=C/C(=O)O[C@H]2CC[C@@]3(C)C(=CC[C@]4(O)[C@@H]3C[C@H]3O[C@H](C)[C@]5(OC(=O)/C=C/c6ccccc6)CC[C@@]4(O)[C@]35C)C2)cc1 |  |  |  | Toxic | inactive |  |
| CC(O)[C@]1(O)CC[C@@]2(O)[C@]1(C)[C@H](OC(=O)c1ccc(O)cc1)C[C@@H]1[C@@]3(C)CC[C@H](O)CC3=CC[C@]12O (stereo partly drawn) |  |  |  | Toxic | inactive |  |
| CCC(=O)O[C@H]1CC[C@@]2(C)C(=CC[C@]3(O)[C@@H]2C[C@@H](OC(=O)c2ccc(O)cc2)[C@@]2(C)[C@]3(O)CC[C@@]2(OC(=O)CC)C(C)=O)C1 |  |  |  | Toxic | inactive |  |
| CC(=O)[C@]1(O)CC[C@@]2(O)[C@]1(C)[C@H](OC(=O)c1ccc(O)cc1)C[C@@H]1[C@@]3(C)CC[C@H](Br)CC3=CC[C@]12O |  |  |  | Toxic | inactive |  |
| CC(=O)[C@]1(O)CC[C@@]2(O)[C@]1(C)[C@H](OC(=O)/C=C(\C)C(C)C)C[C@@H]1[C@@]3(C)CCC(=O)CC3=CC[C@]12O |  | 11.7 | > 10 |  |  | > 10 |
| C[C@H]1O[C@@H]2C[C@@H]3[C@@]4(C)CC[C@H](OC(=O)/C=C/c5ccc([N+](=O)[O-])cc5)CC4=CC[C@@]3(O)[C@@]3(O)CC[C@]1(OC(=O)/C=C/c1ccccc1)[C@@]23C |  |  |  | Toxic | inactive |  |
| CC(=O)O[C@H]1CC[C@@]2(C)C(=CC[C@]3(O)[C@@H]2C[C@@H](OC(=O)/C=C/c2ccccc2)[C@@]2(C)[C@]3(O)CC[C@@]2(O)C(C)=O)C1 |  |  |  | Toxic | inactive |  |
| CC(=O)[C@]1(OC(=O)c2cccc3ccccc23)CC[C@@]2(O)[C@]1(C)[C@H](OC(=O)c1ccc(O)cc1)C[C@@H]1[C@@]3(C)CC[C@H](OC(=O)c4cccc5ccccc45)CC3=CC[C@]12O |  |  |  | Toxic | inactive |  |
| CC(=O)[C@]1(OC(=O)/C=C/c2ccc([N+](=O)[O-])cc2)CC[C@@]2(O)[C@]1(C)[C@H](OC(=O)c1ccc(O)cc1)C[C@@H]1[C@@]3(C)CC[C@H](OC(=O)/C=C/c4ccc([N+](=O)[O-])cc4)CC3=CC[C@]12O |  |  |  | Toxic | inactive |  |
| COc1cc(/C=C/C(=O)O[C@H]2CC[C@@]3(C)C(=CC[C@]4(O)[C@@H]3C[C@@H](OC(=O)/C=C/c3ccccc3)[C@@]3(C)[C@]4(O)CC[C@@]3(O)C(C)=O)C2)cc(OC)c1OC |  |  |  | Toxic | inactive |  |
| COc1ccc(/C=C/C(=O)O[C@H]2CC[C@@]3(C)C(=CC[C@]4(O)[C@@H]3C[C@@H](OC(=O)/C=C/c3ccccc3)[C@@]3(C)[C@]4(O)CC[C@@]3(O)C(C)=O)C2)cc1 |  |  |  | Toxic | inactive |  |
| CC(=O)[C@]1(O)CC[C@@]2(O)[C@]1(C)[C@H](OC(=O)/C=C(\C)C(C)C)C[C@@H]1[C@@]3(C)CC[C@H](O)CC3=CC[C@]12O [CAUDATIN] |  |  |  | Toxic | inactive |  |
| CC(=O)[C@]1(O)CC[C@@]2(O)[C@]1(C)[C@H](OC(=O)/C=C(\C)C(C)C)C[C@@H]1[C@@]3(C)CCC(OC(=O)CCl)CC3=CC[C@]12O (stereo partly drawn) |  |  |  | Toxic | inactive |  |
| CC(=O)[C@]1(OC(=O)c2ccc(Cl)nc2)CC[C@@]2(O)[C@]1(C)[C@H](OC(=O)c1ccc(O)cc1)C[C@@H]1[C@@]3(C)CC[C@H](OC(=O)c4ccc(Cl)nc4)CC3=CC[C@]12O |  |  |  | Toxic | inactive |  |
| CC(=O)[C@]1(O)CC[C@@]2(O)[C@]1(C)[C@H](OC(=O)/C=C(\C)C(C)C)C[C@@H]1[C@@]3(C)CC[C@H](Cl)CC3=CC[C@]12O | > 10 | 12 | > 10 |  |  |  |
| CC(=O)[C@]1(O)CC[C@@]2(O)[C@]1(C)[C@H](OC(=O)/C=C/c1ccccc1)C[C@@H]1[C@@]3(C)CC[C@H](O)CC3=CC[C@]12O |  |  |  | Toxic | inactive |  |

From ChEMBL document CHEMBL4033685, “C21-steroidal pregnane sapogenins and their derivatives as anti-inflammatory agents” (Bioorg Med Chem, 2017)
